Results as given in US6878742B2, “Heterocyclic sulfonamide inhibitors of beta amyloid production” (Wyeth, priority 2000, dated 2005).
Several values for one entry are separate records, joined by “and”; a condition that tells them apart may be missing. Identical values can stand only once.

Tested on: amyloid precursor protein (APP) proteolysis
Assay: Repressor Release Assay (RRA)
Assay type: cell-based
Settings: Conc 3 μg/mL; luciferase activity over diluent control
Description: The beta amyloid inhibitory activity of many of the compounds of the present invention has been determined using the Repressor Release Assay (RRA). See, Table 23 below. A compound is considered active in RRA if it leads to at least a 1.5 fold increase in luciferase activity at 20 μM and is non-toxic.
The compounds generated as described in Examples 1 through 220 were tested in the RRA in accordance with published techniques [Shuey, D. J., Sheiffele, P., Jones, D., Cockett, M. I., and Quinet, E. M. (1999), “Repressor release: a useful tool for monitoring amyloid precursor protein (APP) proteolysis in mammalian cells”, Society for Neuroscience Abstracts, Vol. 25, 29th Annual Meeting of Society for Neuroscience, Miami Beach, Fla., Oct. 23-28, 1999]. Briefly, this assay is performed as follows.
CHO-K1 cells are cultured in whole DMEM media (DMEM—High Glucose with 10% fetal bovine serum, 1% Non-essential Amino Acids, and 1% Penicillin-Streptomycin) at 37° C. with 5% CO2. Two million cells are plated into 10-cm dishes 24 hrs prior to transfection.
Transient transfections are completed as recommended by Gibco BRL using their Lipofectamine Plus system. First, 6 μg of pRSVO-luc and 6 μg of APP-lacI construct DNA are added to 460 μL Opti-Mem transfection media and incubated with 30 μL Plus reagent for 15 minutes. Then, a lipid mixture of 40 μL Lipofectamine reagent and 460 μL Opti-Mem transfection media is incubated with the DNA-Plus reagent mixture for 15 minutes. During the DNA-lipid incubation, the CHO-K1 cells are washed once and covered in 5.0 mL DMEM media without Penicillin-Streptomycin. The DNA-lipid preparation is then layered onto these cells and incubated at 37° C. overnight.
One and one half million transfected cells per well (100 μL total volume) are plated into sterile, opaque Packard 96-well Cultur-Plates in clear DMEM whole media (DMEM—without phenol red) and incubated at 37° C. with 5% CO2 for 3-5 hours.
Compounds are diluted using two different protocols; one protocol is used for compounds supplied neat (weighed powder in vial) and the other protocol is used for compounds supplied in solution (20 mM in DMSO in 96-well plates). For both protocols, 25 mM Hepes and 25 mM Hepes/1% DMSO are prepared fresh to be used as diluent. The Hepes/DMSO is used as the diluent control on all experimental plates.
The following table depicts the steps for compound dilution (please note that the last step is the addition of compound to cells/media in tissue culture plate):
Because some compounds arrive in 96-well format at 20 mM, the following represents the protocol for their dilution (note that an average molecular weight of these compounds was used to calculate these dilutions and as above, the last step is the addition of compound to cells/media in tissue culture plate):
Once compounds are diluted, they are applied in duplicate on cells in tissue culture plates (prepared above). Cells are incubated with compound at 37° C. with 5% CO2 for an additional 36-48 hours.
Luciferase assays (LucLite reagent, Packard) are performed and are read on a Packard TopCount instrument. Media is removed from each 96-well plate and replaced with 100 μL PBS per well (with Mg^2+ and Ca^2+). An equal volume (100 μL) of the LucLite lysis/substrate buffer is added to each well and the plates are sealed and mixed in the dark on a rotary shaker for 15-30 minutes at room temperature. Luciferase readings are then taken on the TopCount instrument. Measurements are expressed as relative light units (RLU) and are calculated and analyzed in MS Excel as follows.
A compound is considered active in RRA if it leads to at least a 1.5 fold increase in luciferase activity at 20 μM and is non-toxic, as determined by loss of signal (≦0.75 fold increase). Fold increase is the amount of luciferase activity (measured in relative light units) over diluent control. SEM represents the standard error of the mean for fold increase (not shown).

| Compound | APPI Fold Increase |
| --- | --- |
| CC(c1ccccc1)C(CO)NS(=O)(=O)c1ccc(Cl)s1 (mixture of isomers) [Example 14] | 1.87 fold and 3.33 fold |
| CCC(C)C(NS(=O)(=O)c1ccc(Cl)s1)C(O)CC (mixture of isomers) [Example 129] | 1.61 fold |

Same assay, conditions: Conc 10 μg/mL; luciferase activity over diluent control

| Compound | APPI Fold Increase |
| --- | --- |
| CCCCCCC(O)C(NS(=O)(=O)c1ccc(Cl)s1)C(C)CC (mixture of isomers) [Example 121] | 1.74 fold and 1.5 fold and 1.56 fold |
| CC(c1ccccc1)C(CO)NS(=O)(=O)c1ccc(Cl)s1 (mixture of isomers) [Example 14] | 3.45 fold |
| CCC(C)C(NS(=O)(=O)c1ccc(Cl)s1)C(O)CC (mixture of isomers) [Example 129] | 7.43 fold and 4.59 fold |
| O=S(=O)(N[C@H](CO)CC1CCCCC1)c1ccc(Cl)s1 [Example 95] | 1.9 fold |

Same assay, conditions: Conc 10 μg/mL; luciferase activity over diluent control; read-out: APPI Fold Increase

| Compound | fold induction at 10 µg/mL |
| --- | --- |
| CC[C@H](C)[C@H](NS(=O)(=O)c1cccs1)C(O)c1ccc(N(C)C)cc1 (stereo partly drawn) [Example 154, N-{(S,S)-1-[[4-(dimethylamino)phenyl](hydroxy)methyl]-2-methylbutyl}thiophene-2-sulfonamide] | 4.23 |
| CC[C@H](C)[C@H](NS(=O)(=O)c1ccc(Cl)s1)C(O)CCC1OCCCO1 (stereo partly drawn) [Example 136, 5-chloro-N-{(S)-4-(1,3-dioxan-2-yl)-2-hydroxy-1-[(S)-1-methylpropyl]butyl}thiophene-2-sulfonamide] | 2.13 |

Same assay, conditions: Conc 20 μg/mL; luciferase activity over diluent control

| Compound | APPI Fold Increase |
| --- | --- |
| 5-bromo-N-{(S,S)-1-[R-1-hydroxyethyl]-2-methylbutyl}thiophene-2-sulfonamide [Example 191] | 5.4 fold and 4.8 fold |
| 5-chloro-N-{(S,R)-2-hydroxy-1-[(S)-1-methylpropyl]pent-4-enyl}thiophene-2-sulfonamide [Example 189] | 8.1 fold and 7.9 fold and 7.2 fold and 4.4 fold |
| CC[C@H](C)[C@@H](CO)NS(=O)(=O)c1cccs1 [Example 7, N-[(1S,2S)-1-(hydroxymethyl)-2-methylbutyl]thiophene-2-sulfonamide] | 3.2 fold |
| 5-chloro-N-{(S,S)-1-[(S)-1-hydroxyethyl]-2-methylbutyl}thiophene-2-sulfonamide [Example 184] | 3.7 fold and 2.7 fold |

Same assay, conditions: Conc 20 μg/mL; luciferase activity over diluent control; read-out: APPI Fold Increase

| Compound | fold induction at 20 µg/mL |
| --- | --- |
| C[C@@H](c1ccc(-c2ccccc2)cc1)[C@@H](CO)NS(=O)(=O)c1ccc(Cl)s1 [Example 53, N-[(1S,2S)-2-[1,1'-biphenyl]-4-yl-1-(hydroxymethyl)propyl]-5-chlorothiophene-2-sulfonamide] | 3.9 |
| CC(C)C[C@@H](c1ccccc1)[C@@H](CO)NS(=O)(=O)c1ccc(Br)s1 [Example 68, 5-bromo-N-[(1S,2S)-1-(hydroxymethyl)-4-methyl-2-phenylpentyl]thiophene-2-sulfonamide] | 2.3 |
| CCCCCC[C@@H](CC)[C@@H](CO)NS(=O)(=O)c1ccc(Br)s1 [Example 78A, 5-bromo-N-[(1S,2R)-2-ethyl-1-(hydroxymethyl)octyl]thiophene-2-sulfonamide] | 5.8 |
| CC(C)[C@@](C)(CO)NS(=O)(=O)c1ccc(Br)s1 [Example 25, 5-Bromo-N-[(1S)-1-(hydroxymethyl)-1,2-dimethylpropyl]thiophene-2-sulfonamide] | 7.5 |
| C=CCNC1CCC([C@@H](CO)NS(=O)(=O)c2ccc(Cl)s2)CC1 (stereo partly drawn) [Example 215, 5-chloro-N-[(S)-2-hydroxy-1-(4-allylaminocyclohexyl)ethyl]thiophene-2-sulfonamide] | 2 |
| CC[C@@H](c1ccccc1)[C@@H](CO)NS(=O)(=O)c1ccc(Br)s1 [Example 67, 5-bromo-N-[(1S,2S)-1-(hydroxymethyl)-2-phenylbutyl]thiophene-2-sulfonamide] | 4.7 |
| CC[C@H](CC(C)C)[C@@H](CO)NS(=O)(=O)c1ccc(Cl)s1 [Example 31, 5-chloro-N-[(1S,2R)-2-ethyl-1-(hydroxymethyl)-4-methylpentyl]thiophene-2-sulfonamide] | 4.4 |
| CC(C)C[C@@H](c1ccc(-c2ccccc2)cc1)[C@@H](CO)NS(=O)(=O)c1ccc(Cl)s1 [Example 55, N-[(1S,2S)-2-[1,1'-biphenyl]-4-yl-1-(hydroxymethyl)-4-methylpentyl]-5-chlorothiophene-2-sulfonamide] | 1.9 |
| C=C(C)CC(O)C1(NS(=O)(=O)c2ccc(Cl)s2)CCCCC1 (stereo not drawn) [Example 198, 5-chloro-N-[1-(1-hydroxy-3-methylbut-3-enyl)cyclohexyl]thiophene-2-sulfonamide] | 4.4 |
| CCCC(CCC)[C@@H](CO)NS(=O)(=O)c1ccc(Cl)s1 [Example 40, 5-chloro-N-[(1S)-2-propyl-1-(hydroxymethyl)pentyl]thiophene-2-sulfonamide] | 3.9 |
| CCCOC1CCC([C@@H](CO)NS(=O)(=O)c2ccc(Cl)s2)CC1 (stereo partly drawn) [Example 200, 5-chloro-N-[(S)-2-hydroxy-1-(4-propoxycyclohexyl)ethyl]thiophene-2-sulfonamide] | 2 |
| CCCCC[C@H](CC(C)C)[C@@H](CO)NS(=O)(=O)c1ccc(Br)s1 [Example 63, 5-bromo-N-[(1S,2R)-1-(hydroxymethyl)-2-isobutylheptyl]thiophene-2-sulfonamide] | 3.3 |
| O=S(=O)(N[C@H](CO)C1CCC(OCc2ccccc2)CC1)c1ccc(Cl)s1 (stereo partly drawn) [Example 202, N-{(S)-1-[4-(benzyloxy)cyclohexyl]-2-hydroxyethyl}-5-chlorothiophene-2-sulfonamide] | 2 |
| CCCCC[C@H](CC(C)C)[C@@H](CO)NS(=O)(=O)c1ccc(Cl)s1 [Example 42, 5-chloro-N-[(1S,2R)-1-(hydroxymethyl)-2-isobutylheptyl]thiophene-2-sulfonamide] | 3.4 |
| CCCCCC[C@@H](C)[C@@H](CO)NS(=O)(=O)c1ccc(Br)s1 [Example 57, 5-bromo-N-[(1S,2R)-1-(hydroxymethyl)-2-methyloctyl]thiophene-2-sulfonamide] | 6.4 |
| Cc1cccc(CSC[C@@H](CO)NS(=O)(=O)c2ccc(Br)s2)c1 [Example 115, 5-bromo-N-(R-2-hydroxy-1-{[(3-methylbenzyl)thio]methyl}ethyl)thiophene-2-sulfonamide] | 4.4 |
| CC(NC1CCCC1)[C@@H](CO)NS(=O)(=O)c1ccc(Cl)s1 (stereo partly drawn) [Example 86, 5-chloro-N-[(1S)-2-(cyclopentylamino)-1-(hydroxymethyl)propyl]-2-thiophenesulfonamide] | 20 |
| CC[C@H](C)[C@@H](CO)N(Cc1cccc(Cl)c1)S(=O)(=O)c1ccc(Cl)s1 [Example 88, 5-chloro-N-(3-chlorobenzyl)-N-[(1S,2S)-1-(hydroxymethyl)-2-methylbutyl]thiophene-2-sulfonamide] | 4.9 |
| O=S(=O)(N[C@H](CO)Cc1ccc(OCc2ccccc2)cc1)c1ccc(Br)s1 [Example 116, N-{(S)-1-[4-(benzyloxy)benzyl]-2-hydroxyethyl}-5-bromothiophene-2-sulfonamide] | 2.2 |

Same assay, conditions: read-out: APPI Fold Increase

| Compound | fold induction at 20 µg/mL |
| --- | --- |
| O=S(=O)(NC(CO)C1CC=CCC1)c1ccc(Cl)s1 (stereo not drawn) [Example 23, 5-chloro-N-(1-cyclohex-3-en-1-yl-2-hydroxyethyl)thiophene-2-sulfonamide] | 6.4 |
| CCCC(C)C(CO)NS(=O)(=O)c1ccc(Cl)s1 (stereo not drawn) [Example 20, 5-chloro-N-[1-(hydroxymethyl)-2-methylpentyl]thiophene-2-sulfonamide] | 5 |
